We go through 3 molecules from paper PMC10892093 (Pharmaceutics, 2024).

Like-named read-outs stand apart in the source and are kept apart here. Where only a bound is given, the exact number is not on record here.

The subject of data set [1] is human liver microsomes (HLM). Briefly: Inhibition of R- and S-oxazepam glucuronidation in human liver microsomes. As for the experimental part:
(§1) A Waters Corp BEH C18 Acquity UPLC column (1.7 µM, 2.1 × 100 mm) was used at a constant temperature of 40 °C for chromatographic separation. An elution gradient was used for 6.5 min with mobile phases A (5 mM ammonium formate) and B (100% methanol) under the following conditions: 90% A for 0.5 min, followed by a linear gradient for 3 min to 60% A, 1 min at 5% A, and re-equilibration for 1 min at 90% A.
(§2) The reaction was initiated by the addition of 4 mM UDPGA as the cofactor and incubated for 2 h at 37 °C. The reaction was terminated by adding 30 µL of an ice-cold stop solution (acetonitrile/methanol; 1:1). The reaction mixtures were centrifuged at 17,000× g for 30 min at 4 °C, and the supernatant was transferred to UPLC sample glass vial for analysis using UPLC–MS/MS (described above). […] As a positive control for inhibition assays, ketoconazole (10 μM and 100 µM) was used as a potential inhibitor of the UGTs 1A9, 2B7, and 2B15. Reactions containing only the cannabinoid vehicle (3% methanol) and without any inhibitor (cannabinoids) were used as a baseline reaction for 100% enzyme activity, while a reaction without UDPGA was used as a negative control. All experiments were performed in three independent experiments.
(§3) Determination of IC50 and Ki Values. […] The nonspecific binding constants (fu,inc) for cannabinoids in HEK293 microsomes, HLM, and HKM were previously determined and used to calculate the inhibition by unbound (‘free’) cannabinoid in each reaction. A nonlinear regression analysis and the following equation were used to calculate the IC50 values:(1) y = Bottom +Top − Bottom / 1 + 10^x − LogIC50A where ‘Bottom’ is the maximum observed inhibition (lowest percent activity) and ‘Top’ is the minimum observed inhibition (highest percent activity) for a given cannabinoid.
(§4) The inhibition constant (Ki) was generated from the in vitro IC50 values assuming competitive inhibition (based on the Cheng–Prusoff equation; [49]). Considering that there have been no reports of the irreversible inhibition (e.g., mechanism-based inhibition) of UGTs, competitive inhibition was assumed as the worst-case scenario (highest inhibition) among all feasible types of reversible inhibitions. The substrate concentration used in the incubations was below the reported Km; therefore, the Ki values were predicted using Equation (2):(2) Ki=IC50/S/Km+1 where Km is Michaelis–Menten constant for the substrate, S is the substrate concentration, and IC50 is half-maximal inhibitory concentration.
A general note: Microsomes from liver hold many membrane-bound enzymes, among them those of drug oxidation.

Data set [2] deals with human kidney microsomes (HKM). Kind of data set: Inhibition of R- and S-oxazepam glucuronidation in human kidney microsomes. As to the method:
as §1, §2, §3

For data set [3] the following is noted: cited from earlier work.
Data set [4] deals with UGTs (R-oxazepam glucuronidation in HLM). Kind of data set: Inhibition of R- and S-oxazepam glucuronidation in human liver microsomes. The following applies: human, human liver microsomes. As to the method: as §1, §2, §3, §4
The subject of data set [5] is UGTs (S-oxazepam glucuronidation in HLM). Described as above. The following applies: human, human liver microsomes. As to the method: as §1, §2, §3, §4
For data set [6] the following is noted: cited from earlier work. The source holds these as a separate data set.
For data set [7], the system named is UGTs (S-oxazepam glucuronidation in HKM). Briefly: Inhibition of R- and S-oxazepam glucuronidation in human kidney microsomes. The following applies: human, human kidney microsomes. As to the method:
as §1, §2, §3

For data set [8], the system named is UGTs (R-oxazepam glucuronidation in HKM). The data set is described as above. Conditions: human, human kidney microsomes. As for the experimental part: as §1, §2, §3
The mark [9] stands for this setting: read-out: IC50, R-Oxazepam Glucuronide.
Where [10] appears, read: read-out: IC50, S-Oxazepam Glucuronide.
[11] abbreviates: read-out: IC50,u, R-Oxazepam Glucuronide, IC50 corrected with fu,inc.
Setting [12] is: read-out: Ki, R-Oxazepam Glucuronide, generated from IC50 assuming competitive inhibition.
[13] abbreviates: read-out: Ki, S-Oxazepam Glucuronide, generated from IC50 assuming competitive inhibition.
The mark [14] stands for this setting: read-out: Ki,u, R-Oxazepam Glucuronide, Ki corrected with fu,inc.
The mark [15] stands for this setting: read-out: Ki,u, S-Oxazepam Glucuronide, Ki corrected with fu,inc.
Setting [16] is: read-out: IC50,u, S-Oxazepam Glucuronide, IC50 corrected with fu,inc.
Where [17] appears, read: pH 7.4, IC50, R-Oxazepam Glucuronide.
Setting [18] is: pH 7.4, IC50,u, R-Oxazepam Glucuronide, IC50 corrected with fu,inc.
Where [19] appears, read: pH 7.4, IC50, S-Oxazepam Glucuronide.
Setting [20] is: pH 7.4, IC50,u, S-Oxazepam Glucuronide, IC50 corrected with fu,inc.

The IC50 is the midpoint of a concentration-inhibition curve. For orientation: Ki means the dissociation constant of the complex between target and ligand, obtained from inhibition or displacement. In general, Cmax refers to the maximum level reached in the sampled fluid or tissue. With `CCCCCc1cc(O)c2c(c1)OC(C)(C)[C@@H]1CCC(C)=C[C@@H]21` [THC, Δ^9-tetrahydrocannabinol], the IC50 in data set [1] (setting [9]) was 34 ± 16 µM; in data set [1] (setting [10]), more than 100 µM; in data set [1] (setting [11]) it was 1.6 ± 0.77 µM; in data set [2] (setting [9]) it was 94 ± 26 µM; in data set [2] (setting [10]) it was more than 100 µM; in data set [2] (setting [16]), more than 4.8 µM. Also, the Ki in data set [1] (setting [12]) is 33 ± 15 µM; in data set [1] (setting [13]) it was more than 83 µM; in data set [1] (setting [14]), 1.6 ± 0.74 µM; in data set [1] (setting [15]) it was more than 3.2 µM. In addition, the Cmax in data set [3] (THC dose 20 mg, oral) was 30 nM; in data set [3] (THC dose 25 mg, inhalation), 250 nM; in data set [3] (THC dose 70 mg, inhalation), 700 nM; in data set [3] (THC dose 100 mg, inhalation), 990 nM; in data set [3] (THC dose 130 mg, oral), 200 nM; in data set [3] (THC dose 160 mg, oral), 240 nM. The results for the maximum concentration (Cmax) in data set [3] (after smoking), in data set [3] (oral ingestion of 50 mg THC) and in data set [3] (smoking cannabis cigarettes with 3.55% THC) were 640 nM, 530 nM and 515 nM, respectively.
Take “11-hydroxy-Δ^9-tetrahydrocannabinol [11-OH-THC]”: the IC50 in data set [1] (setting [9]) came out at 18 ± 5 µM; in data set [1] (setting [10]), 41 ± 25 µM; in data set [1] (setting [11]) it was 1.7 ± 0.47 µM; in data set [1] (setting [16]), 3.9 ± 2.4 µM; in data set [2] (setting [9]), 18 ± 4.3 µM; in data set [2] (setting [10]), 19 ± 2 µM. The IC50 stood at 1.7 ± 0.4 µM in data set [2] (setting [11]) and 1.8 ± 0.19 µM in data set [2] (setting [16]). For the same molecule, the Ki turned out to be 18 ± 4.9 µM in data set [1] (setting [12]), 34 ± 21 µM in data set [1] (setting [13]), 1.7 ± 0.46 µM in data set [1] (setting [14]) and 3.2 ± 2 µM in data set [1] (setting [15]). The highest concentration (Cmax) in data set [3] (THC dose 20 mg, oral) is 15 nM; in data set [3] (THC dose 25 mg, inhalation) it was 12 nM; in data set [3] (THC dose 70 mg, inhalation), 32 nM; in data set [3] (THC dose 100 mg, inhalation), 46 nM; in data set [3] (THC dose 130 mg, oral), 100 nM; in data set [3] (THC dose 160 mg, oral), 120 nM. In addition, the Cmax is 90 nM in data set [3] (after smoking) and 160 nM in data set [3] (oral ingestion of 50 mg THC).
For `C=C(C)[C@@H]1CCC(C)=C[C@H]1c1c(O)cc(CCCCC)cc1O` [CBD, cannabidiol], the IC50 at 2 h in data set [4] (setting [17]) turned out to be 16 ± 7.7 µM; in data set [4] (setting [18]), 0.84 ± 0.39 µM; in data set [5] (setting [19]), 87 ± 46 µM; in data set [5] (setting [20]), 4.5 ± 2.4 µM; in data set [7] (setting [19]), 16 ± 7.7 µM; in data set [7] (setting [20]), 0.98 ± 0.48 µM. Further, the IC50 at 2 h in data set [8] (setting [17]) turned out to be 5.9 ± 1 µM; in data set [8] (setting [18]), 0.36 ± 0.062 µM. Moreover, the Ki in data set [1] (setting [12]) was 16 ± 7.4 µM; in data set [1] (setting [13]), 72 ± 32 µM; in data set [1] (setting [14]), 0.82 ± 0.38 µM; in data set [1] (setting [15]) it was 3.7 ± 1.6 µM. For the same molecule, the “Increase in N-desmethylclobazam concentration” value in data set [6] (coadministration of clobazam, stiripentol, and CBD 750 mg twice daily) is given as 3.4 fold. Further, the “Increase in the level of 1-hydroxymidazolam” value in data set [6] (oral CBD 750 mg twice daily with midazolam) was 12%. Besides, the Cmax in data set [3] (1500 mg dose of CBD following a high-fat diet) was 4400 nM; in data set [3] (CBD 2 mg, inhalation), 6.4 nM; in data set [3] (CBD 19 mg, inhalation) it was 350 nM; in data set [3] (CBD 70 mg, oral) it was 89 nM; in data set [3] (CBD 700 mg, oral), 890 nM; in data set [3] (CBD 2000 mg, oral), 2500 nM.
